Test results: PMC12040169 (PLOS Biology, 2025)

Experiments:
[1] = in vitro; parameters: Viability of infected HeLa host cells, resazurin conversion, bulk resorufin fluorescence relative to DMSO; details: human, hela cells; bulk resorufin, mean of 2
[2] = tested on: T1, C. trachomatis L2/434/Bu expressing GFP (CTL2-GFP); assay: microbe, parasite or virus in culture; parameters: C. trachomatis total inclusion area by high-content imaging, normalised to DMSO; details: Chlamydia trachomatis, HeLa, 28.5 h; total inclusion area; read-out: % of control remaining
T1 construct: L2/434/Bu GFP intracellular growth in HeLa cells
Procedure, shortened: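 After bulk GFP and resorufin reads, fixed cells were Hoechst-stained and imaged to count chlamydial inclusions and host nuclei. Total inclusion area and number tracked bacterial growth, and nuclei number tracked host viability. MICs were derived, and 36,785 drug-like molecules were screened this way.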

[3] = in vitro; details: human, hela cells, % viability
[4] = tested on: T2, CTL2-GFP (C. trachomatis L2/434/Bu, GFP-expressing); assay: microbe, parasite or virus in culture; parameters: Intracellular C. trachomatis growth in HeLa cells, bulk GFP fluorescence relative to DMSO; details: Chlamydia trachomatis, HeLa, 28.5 h; bulk GFP, mean of 2; read-out: % of control remaining
T2 construct: L2/434/Bu, GFP-expressing
Description: MICs were calculated as described above.

Row | SMILES | viability at 28.5 h, 1 µM [1] | viability at 28.5 h, 5 µM [1] | viability at 28.5 h, 10 µM [1] | activity at 1 µM [2] | activity at 5 µM [2] | activity at 10 µM [2] | viability at 28.5 h, 10 µM [3] | activity at 1 µM [4] | activity at 5 µM [4] | activity at 10 µM [4]
1 | CCOc1cc(/C=N/Nc2nnc(C)n2N)ccc1O [CBK027460] | 93.3% | 88.7% | 87.4% | 115% | 81% | 31.7% | 88.9% | 109% | 57.8% | 26%
2 | O=C(Nc1ccccc1N1CCCNCC1)c1ccc2ccccc2c1 [CBK038927T] | 115% | 114% | 116% | 84.9% | 7.75% | 1.67% | 97.3% | 94.8% | 1.41% | 8.25%
3 | FC(F)(F)CCN1CCC2(CC1)NCCc1c2[nH]c2ccc(Cl)cc12 [CBK039331] | 98.2% | 105% | 108% | 56.9% | 20.2% | 7.6% | 91% | 123% | 46.8% | 30.2%
4 | CC(Nc1cc(N2CCN(CCO)CC2)ccc1[N+](=O)[O-])c1ccc(Br)cc1 (stereo not shown) [CBK041273] | 91.4% | 94.5% | 96.3% | 130% | 81.9% | 47.4% | 103% | 139% | 130% | 93.8%
5 | CCc1cc(Br)ccc1S(=O)(=O)NC(CC)COC (stereo not shown) [CBK045265] | 100% | 99% | 96.5% | 117% | 106% | 97.7% | 88.1% | 138% | 114% | 140%
6 | c1ccc(-c2nnc3ccccc3c2N2CCNCC2)cc1 [CBK066888] | 114% | 106% | 105% | 97.7% | 46% | 0.17% | 107% | 125% | 82.9% | 27.1%
7 | OC(COc1ccc(Br)cc1)CN1CCCN(c2nc3ccc(Cl)cc3s2)CC1 (stereo not shown) [CBK074643] | 86.1% | 88.1% | 88% | 121% | 82.4% | 11.3% | 93.5% | 137% | 114% | 43.8%
8 | O=C(Nc1ccccc1C(=O)Nc1nnc(C(F)(F)F)s1)c1ccccc1Cl [CBK076900] | 94.7% | 97% | 84.6% | 113% | 64.7% | 63.4% | 76.9% | 130% | 90.8% | 45.1%
9 | N#CCCCN1CCC(Oc2cncc(OCc3ccc(Cl)c(Cl)c3)n2)C1 (stereo not shown) [CBK084436] | 95.4% | 102% | 99.4% | 118% | 74.4% | 32.6% | 96.1% | 127% | 81.2% | 52.7%
10 | COc1ccc(N2CCN(C(=O)c3ccc([N+](=O)[O-])o3)CC2)cc1 [CBK091410] | 106% | 110% | 125% | 128% | 64.3% | 20.7% | 105% | 106% | 55.2% | 16%
